These results are taken from ChEMBL document CHEMBL3779859, “Synergistic activity of a short lipidated antimicrobial peptide (lipoAMP) and colistin or tobramycin against Pseudomonas aeruginosa from cystic fibrosis patients” (Medchemcomm, 2016).

Usually MIC stands for the lowest concentration found to suppress growth. The low end stands for greater potency, the high end for weaker potency.

Structures are written as SMILES. ≈ marks a conversion by molar mass, not a printed value. Calls of active or inactive are those of the source. The rule behind the calls is not given here. Peptide text beside a SMILES is read from it. * marks the point of attachment. Myristoyl = CCCCCCCCCCCCCC(=O)*; Lauroyl = CCCCCCCCCCCC(=O)*; Octanoyl = CCCCCCCC(=O)*; Hexanoyl = CCCCCC(=O)*

The test system of assay [1] is Pseudomonas aeruginosa. Kind of assay: Antibacterial activity against Pseudomonas aeruginosa LES431 clinical isolate after 16 to 20 hrs by microdilution assay. The format is functional. (In general: Dilution methods test growth across graded concentrations, often in twofold steps.)
Assay [2] concerns Pseudomonas aeruginosa. In words: Antibacterial activity against Pseudomonas aeruginosa VW1633 clinical isolate after 16 to 20 hrs by microdilution assay. The format is functional.
For assay [3], the system named is Pseudomonas aeruginosa. In words: Antibacterial activity against Pseudomonas aeruginosa KD491 clinical isolate after 16 to 20 hrs by microdilution assay. The assay is classed as functional.
In assay [4] the test system is Pseudomonas aeruginosa. Kind of assay: Antibacterial activity against Pseudomonas aeruginosa MIDLANDS clinical isolate after 16 to 20 hrs by microdilution assay. The assay is classed as functional.
Assay [5] concerns Pseudomonas aeruginosa. Kind of assay: Antibacterial activity against Pseudomonas aeruginosa KD557 clinical isolate after 16 to 20 hrs by microdilution assay. The assay is classed as functional.
Assay [6] relates to Pseudomonas aeruginosa. In words: Antibacterial activity against Pseudomonas aeruginosa VW1540 clinical isolate after 16 to 20 hrs by microdilution assay. The format is functional.
Assay [7] relates to Pseudomonas aeruginosa. In words: Antibacterial activity against Pseudomonas aeruginosa VW1538 clinical isolate after 16 to 20 hrs by microdilution assay. The assay is classed as functional.
In assay [8] the test system is Pseudomonas aeruginosa. Kind of assay: Antibacterial activity against Pseudomonas aeruginosa LES400 clinical isolate after 16 to 20 hrs by microdilution assay. The format is functional.
The subject of assay [9] is Pseudomonas aeruginosa. Kind of assay: Antibacterial activity against Pseudomonas aeruginosa LESB58 clinical isolate after 16 to 20 hrs by microdilution assay. The format is functional.
In assay [10] the test system is Pseudomonas aeruginosa. In words: Antibacterial activity against Pseudomonas aeruginosa kl 1.1 clinical isolate after 16 to 20 hrs by microdilution assay. The assay is classed as functional.
The test system of assay [11] is Pseudomonas aeruginosa. Kind of assay: Antibacterial activity against Pseudomonas aeruginosa VW1485 clinical isolate after 16 to 20 hrs by microdilution assay. The assay is classed as functional.
Assay [12] has as its system Pseudomonas aeruginosa. Kind of assay: Antibacterial activity against Pseudomonas aeruginosa Clone C clinical isolate after 16 to 20 hrs by microdilution assay. The assay is classed as functional.
Assay [13] has as its system Pseudomonas aeruginosa. In words: Antibacterial activity against Pseudomonas aeruginosa VW1471 clinical isolate after 16 to 20 hrs by microdilution assay. The format is functional.
Assay [14] concerns Pseudomonas aeruginosa. Kind of assay: Antibacterial activity against Pseudomonas aeruginosa VW1501 clinical isolate after 16 to 20 hrs by microdilution assay. The assay is classed as functional.
For assay [15], the system named is Pseudomonas aeruginosa. In words: Antibacterial activity against Pseudomonas aeruginosa D599 clinical isolate after 16 to 20 hrs by microdilution assay. The format is functional.
Assay [16] concerns Pseudomonas aeruginosa. Kind of assay: Antibacterial activity against Pseudomonas aeruginosa kl 3.2 clinical isolate after 16 to 20 hrs by microdilution assay. The assay is classed as functional.
Assay [17] concerns Pseudomonas aeruginosa. In words: Antibacterial activity against Pseudomonas aeruginosa PAO1 clinical isolate after 16 to 20 hrs by microdilution assay. The format is functional.
Assay [18] deals with Pseudomonas aeruginosa. Kind of assay: Antibacterial activity against Pseudomonas aeruginosa VW0247 clinical isolate after 16 to 20 hrs by microdilution assay. The format is functional.
Assay [19] concerns Pseudomonas aeruginosa. Kind of assay: Antibacterial activity against Pseudomonas aeruginosa VW178 clinical isolate after 16 to 20 hrs by microdilution assay. The format is functional.
Assay [20] has as its system Pseudomonas aeruginosa. In words: Antibacterial activity against Pseudomonas aeruginosa VW313 clinical isolate after 16 to 20 hrs by microdilution assay. The assay is classed as functional.
For assay [21], the system named is Pseudomonas aeruginosa. Kind of assay: Antibacterial activity against Pseudomonas aeruginosa Clone C clinical isolate assessed as delay in growth rate in exponential phase of bacterial growth curve at 0.25 ug/ml measured every 15 mins by microtiter plate reader method. The format is functional, organism-based.
For assay [22], the system named is Pseudomonas aeruginosa. In words: Antibacterial activity against Pseudomonas aeruginosa KD491 clinical isolate assessed as delay in growth rate in exponential phase of bacterial growth curve at 1 ug/ml measured every 15 mins by microtiter plate reader method. The format is functional, organism-based.
The subject of assay [23] is Pseudomonas aeruginosa. In words: Antibacterial activity against Pseudomonas aeruginosa PAO1 clinical isolate assessed as delay in growth rate in exponential phase of bacterial growth curve at 0.25 ug/ml measured every 15 mins by microtiter plate reader method. The assay is classed as functional, organism-based.
The subject of assay [24] is Pseudomonas aeruginosa. In words: Antibacterial activity against Pseudomonas aeruginosa LESB58 clinical isolate assessed as delay in growth rate in exponential phase of bacterial growth curve at 1 ug/ml measured every 15 mins by microtiter plate reader method. The assay is classed as functional, organism-based.

As for `CCCCCC(=O)N[C@@H](CCCNC(=N)N)C(=O)N[C@@H](Cc1c[nH]c2ccccc12)C(=O)N[C@@H](CCCNC(=N)N)C(=O)N[C@@H](Cc1c[nH]c2ccccc12)C(=O)N[C@@H](CCCNC(=N)N)C(=O)N[C@@H](Cc1c[nH]c2ccccc12)C(=O)N[C@@H](CCCCN)C(=O)O` (Hexanoyl-RWRWRWK-OH), the MIC in [1] was > 128 µg/mL; in assay [2], 32 µg/mL (≈ 25.2 µM); in assay [3] it was 64 µg/mL (≈ 50.3 µM).
Regarding `CCCCCCCCCCCC(=O)N[C@@H](CCCNC(=N)N)C(=O)N[C@@H](Cc1c[nH]c2ccccc12)C(=O)N[C@@H](CCCNC(=N)N)C(=O)N[C@@H](Cc1c[nH]c2ccccc12)C(=O)N[C@@H](CCCNC(=N)N)C(=O)N[C@@H](Cc1c[nH]c2ccccc12)C(=O)N[C@@H](CCCCN)C(=O)O` (Lauroyl-RWRWRWK-OH), the MIC in assay [1] was 64 µg/mL (≈ 47.2 µM); in [2], > 128 µg/mL; in [3] it was > 128 µg/mL.
As to `CCCCCCCCCCCCCC(=O)N[C@@H](CCCNC(=N)N)C(=O)N[C@@H](Cc1c[nH]c2ccccc12)C(=O)N[C@@H](CCCNC(=N)N)C(=O)N[C@@H](Cc1c[nH]c2ccccc12)C(=O)N[C@@H](CCCNC(=N)N)C(=O)N[C@@H](Cc1c[nH]c2ccccc12)C(=O)N[C@@H](CCCCN)C(=O)O` (Myristoyl-RWRWRWK-OH), the MIC in [1], in assay [2] and in assay [3] was > 128 µg/mL each time.
As to `CCCCCCCC(=O)N[C@@H](CCCNC(=N)N)C(=O)N[C@@H](Cc1c[nH]c2ccccc12)C(=O)N[C@@H](CCCNC(=N)N)C(=O)N[C@@H](Cc1c[nH]c2ccccc12)C(=O)N[C@@H](CCCNC(=N)N)C(=O)N[C@@H](Cc1c[nH]c2ccccc12)C(=O)N[C@@H](CCCCN)C(=O)O` (Octanoyl-RWRWRWK-OH), the MIC in assay [1] is 64 µg/mL (≈ 49.2 µM); in [2], 32 µg/mL (≈ 24.6 µM); in assay [3], 16 µg/mL (≈ 12.3 µM).
For `CC(C)(O/N=C(\C(=O)N[C@@H]1C(=O)N2C(C(=O)[O-])=C(C[n+]3ccccc3)CS[C@H]12)c1csc(N)n1)C(=O)O` [CEFTAZIDIME], the MIC in [4] amounted to 64 µg/mL (≈ 117 µM); in assay [5], 2 µg/mL (≈ 3.66 µM); in assay [6], 16 µg/mL (≈ 29.3 µM); in assay [7], 8 µg/mL (≈ 14.6 µM); in assay [8], 32 µg/mL (≈ 58.5 µM); in [1], 256 µg/mL (≈ 468 µM). Besides, the MIC in [9] was 256 µg/mL (≈ 468 µM); in [10], 2 µg/mL (≈ 3.66 µM); in [11], 8 µg/mL (≈ 14.6 µM); in assay [2] it was > 256 µg/mL; in assay [12], 2 µg/mL (≈ 3.66 µM); in assay [13], 128 µg/mL (≈ 234 µM). Also, the MIC in [14] is 4 µg/mL (≈ 7.32 µM); in assay [15] it was 1 µg/mL (≈ 1.83 µM); in [16], 2 µg/mL (≈ 3.66 µM); in assay [3], > 256 µg/mL; in assay [17] it was 1 µg/mL (≈ 1.83 µM); in [18] it was 16 µg/mL (≈ 29.3 µM). Also, the minimum inhibitory concentration (MIC) in assay [19] is 2 µg/mL (≈ 3.66 µM); in assay [20], > 256 µg/mL.
On to `C[C@@H](O)[C@H]1C(=O)N2C(C(=O)O)=C(S[C@@H]3CN[C@H](C(=O)N(C)C)C3)[C@H](C)[C@H]12` [MEROPENEM], for which the MIC in assay [4] came to 16 µg/mL (≈ 41.7 µM); in assay [5], 1 µg/mL (≈ 2.61 µM); in assay [6], 1 µg/mL (≈ 2.61 µM); in [8] it was 2 µg/mL (≈ 5.22 µM); in assay [1], 8 µg/mL (≈ 20.9 µM); in [9], 2 µg/mL (≈ 5.22 µM). The minimum inhibitory concentration (MIC) worked out at 4 µg/mL (≈ 10.4 µM) in assay [10]; 0.25 µg/mL (≈ 0.652 µM) in [11]; 1 µg/mL (≈ 2.61 µM) in assay [2]; 2 µg/mL (≈ 5.22 µM) in assay [12]; 32 µg/mL (≈ 83.4 µM) in assay [13]; 0.25 µg/mL (≈ 0.652 µM) in assay [14]. Also, the minimal inhibitory concentration (MIC) in [15] worked out at 0.5 µg/mL (≈ 1.3 µM); in assay [16], 4 µg/mL (≈ 10.4 µM); in assay [3], 16 µg/mL (≈ 41.7 µM); in [17], 2 µg/mL (≈ 5.22 µM); in assay [18], 0.25 µg/mL (≈ 0.652 µM); in assay [19] it was 2 µg/mL (≈ 5.22 µM). In addition, the MIC in [20] stood at 16 µg/mL (≈ 41.7 µM).
As to `NC[C@H]1O[C@H](O[C@H]2[C@H](O)[C@@H](O[C@H]3O[C@H](CO)[C@@H](O)[C@H](N)[C@H]3O)[C@H](N)C[C@@H]2N)[C@H](N)C[C@@H]1O` [TOBRAMYCIN], the MIC in assay [4] turned out to be 2 µg/mL (≈ 4.28 µM); in assay [5] it was 1 µg/mL (≈ 2.14 µM); in assay [6], 0.125 µg/mL (≈ 0.267 µM); in assay [7], 8 µg/mL (≈ 17.1 µM); in assay [8] it was 8 µg/mL (≈ 17.1 µM); in assay [1] it was 2 µg/mL (≈ 4.28 µM). In addition, the minimal inhibitory concentration (MIC) in assay [9] was 8 µg/mL (≈ 17.1 µM); in [10], 4 µg/mL (≈ 8.56 µM); in assay [11], 16 µg/mL (≈ 34.2 µM); in [2], 0.125 µg/mL (≈ 0.267 µM); in [12], 1 µg/mL (≈ 2.14 µM); in assay [13], 8 µg/mL (≈ 17.1 µM). Moreover, the MIC in [14] came out at 4 µg/mL (≈ 8.56 µM); in assay [15] it was 0.5 µg/mL (≈ 1.07 µM); in assay [16] it was 16 µg/mL (≈ 34.2 µM); in [3] it was 8 µg/mL (≈ 17.1 µM); in [17], 2 µg/mL (≈ 4.28 µM); in [18], 4 µg/mL (≈ 8.56 µM). The MIC in [19] was 32 µg/mL (≈ 68.4 µM); in assay [20], 16 µg/mL (≈ 34.2 µM). Moreover, the result in [21], in assay [22], in assay [23] and in assay [24] was Active.
